{
  "source": "PubChem BioAssay AID1963866",
  "about": "(Molecular Pharmacology Branch, DTP, NCI, 2024)",
  "tested_on": "PDC KRAS tumor spheroids with HUVEC/MSC, viability",
  "assay": "Anticancer human tumor 349418-098-R-PDC patient-derived lung adenocarcinoma cell line growth inhibition [KRAS2]",
  "conditions": "for IC50: curve of first compound; for viability, T/C: stronger effect = lower value",
  "summary_of_the_method": "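Combination screen of spheroid viability in tumor-cell co-cultures with endothelial (HUVEC) and mesenchymal stem cell stroma. Each agent was tested in half-log dilutions, topping at clinical Cmax or at 10 microM without a known Cmax.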",
  "key": {"[1]": {"conditions": "second compound 0.1 µM, first compound 0.0316 µM"}, "[2]": {"conditions": "second compound 0.1 µM, first compound 0.1 µM"}, "[3]": {"conditions": "second compound 0.1 µM, first compound 0.316 µM"}, "[4]": {"conditions": "second compound 0.1 µM, first compound 1 µM"}, "[5]": {"conditions": "second compound 0.1 µM, first compound 3.16 µM"}, "[6]": {"conditions": "second compound 0.1 µM, first compound 10 µM"}, "[7]": {"conditions": "second compound 0.316 µM, first compound 0.0316 µM"}, "[8]": {"conditions": "second compound 0.316 µM, first compound 0.1 µM"}, "[9]": {"conditions": "second compound 0.316 µM, first compound 0.316 µM"}, "[10]": {"conditions": "second compound 0.316 µM, first compound 1 µM"}, "[11]": {"conditions": "second compound 0.316 µM, first compound 3.16 µM"}, "[12]": {"conditions": "second compound 0.316 µM, first compound 10 µM"}, "[13]": {"conditions": "second compound 1 µM, first compound 0.0316 µM"}, "[14]": {"conditions": "second compound 1 µM, first compound 0.1 µM"}, "[15]": {"conditions": "second compound 1 µM, first compound 0.316 µM"}, "[16]": {"conditions": "second compound 1 µM, first compound 1 µM"}, "[17]": {"conditions": "second compound 1 µM, first compound 3.16 µM"}, "[18]": {"conditions": "second compound 1 µM, first compound 10 µM"}, "[19]": {"conditions": "second compound 3.16 µM, first compound 0.0316 µM"}, "[20]": {"conditions": "second compound 3.16 µM, first compound 0.1 µM"}, "[21]": {"conditions": "second compound 3.16 µM, first compound 0.316 µM"}, "[22]": {"conditions": "second compound 3.16 µM, first compound 1 µM"}, "[23]": {"conditions": "second compound 3.16 µM, first compound 3.16 µM"}, "[24]": {"conditions": "second compound 3.16 µM, first compound 10 µM"}, "[25]": {"conditions": "second compound 10 µM, first compound 0.0316 µM"}, "[26]": {"conditions": "second compound 10 µM, first compound 0.1 µM"}, "[27]": {"conditions": "second compound 10 µM, first compound 0.316 µM"}, "[28]": {"conditions": "second compound 10 µM, first compound 1 µM"}, "[29]": {"conditions": "second compound 10 µM, first compound 3.16 µM"}, "[30]": {"conditions": "second compound 10 µM, first compound 10 µM"}},
  "data": [
    {"compound": "CC1OCC2(CCN(c3cnc(Sc4ccnc(N)c4Cl)c(N)n3)CC2)C1N", "note": "(stereo not given) + COc1cc2nc(C)nc(NC(C)c3cc(N)cc(C(F)(F)F)c3)c2cc1OC1CCOC1;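 also: spheroids exposed to compounds for seven days before readout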", "values": [
      {"measurement": "IC50", "setting": "second compound 0.1 µM", "result": "> 10000", "unit": "nM"},
      {"measurement": "IC50", "setting": "second compound 0.316 µM", "result": "> 10000", "unit": "nM"},
      {"measurement": "IC50", "setting": "second compound 1 µM", "result": "> 10000", "unit": "nM"},
      {"measurement": "IC50", "setting": "second compound 3.16 µM", "result": "> 10000", "unit": "nM"},
      {"measurement": "IC50", "setting": "second compound 10 µM", "result": "< 31.6", "unit": "nM"},
      {"measurement": "viability, T/C", "setting": "[1]", "result": 101, "unit": "%"},
      {"measurement": "viability, T/C", "setting": "[2]", "result": 77.2, "unit": "%"},
      {"measurement": "viability, T/C", "setting": "[3]", "result": 54.4, "unit": "%"},
      {"measurement": "viability, T/C", "setting": "[4]", "result": 97.6, "unit": "%"},
      {"measurement": "viability, T/C", "setting": "[5]", "result": 85.6, "unit": "%"},
      {"measurement": "viability, T/C", "setting": "[6]", "result": 62.7, "unit": "%"},
      {"measurement": "viability, T/C", "setting": "[7]", "result": 114, "unit": "%"},
      {"measurement": "viability, T/C", "setting": "[8]", "result": 80.8, "unit": "%"},
      {"measurement": "viability, T/C", "setting": "[9]", "result": 54.5, "unit": "%"},
      {"measurement": "viability, T/C", "setting": "[10]", "result": 95.3, "unit": "%"},
      {"measurement": "viability, T/C", "setting": "[11]", "result": 95.3, "unit": "%"},
      {"measurement": "viability, T/C", "setting": "[12]", "result": 77.8, "unit": "%"},
      {"measurement": "viability, T/C", "setting": "[13]", "result": 124, "unit": "%"},
      {"measurement": "viability, T/C", "setting": "[14]", "result": 99.3, "unit": "%"},
      {"measurement": "viability, T/C", "setting": "[15]", "result": 67.7, "unit": "%"},
      {"measurement": "viability, T/C", "setting": "[16]", "result": 72.1, "unit": "%"},
      {"measurement": "viability, T/C", "setting": "[17]", "result": 80, "unit": "%"},
      {"measurement": "viability, T/C", "setting": "[18]", "result": 74.1, "unit": "%"},
      {"measurement": "viability, T/C", "setting": "[19]", "result": 93.8, "unit": "%"},
      {"measurement": "viability, T/C", "setting": "[20]", "result": 77.7, "unit": "%"},
      {"measurement": "viability, T/C", "setting": "[21]", "result": 46, "unit": "%"},
      {"measurement": "viability, T/C", "setting": "[22]", "result": 62.6, "unit": "%"},
      {"measurement": "viability, T/C", "setting": "[23]", "result": 86.7, "unit": "%"},
      {"measurement": "viability, T/C", "setting": "[24]", "result": 57.1, "unit": "%"},
      {"measurement": "viability, T/C", "setting": "[25]", "result": 42.8, "unit": "%"},
      {"measurement": "viability, T/C", "setting": "[26]", "result": 29.8, "unit": "%"},
      {"measurement": "viability, T/C", "setting": "[27]", "result": 18.9, "unit": "%"},
      {"measurement": "viability, T/C", "setting": "[28]", "result": 24.1, "unit": "%"},
      {"measurement": "viability, T/C", "setting": "[29]", "result": 35.3, "unit": "%"},
      {"measurement": "viability, T/C", "setting": "[30]", "result": 19.2, "unit": "%"}
    ]},
    {"compound": "CC1(C)CCC(CN2CCN(c3ccc(C(=O)NS(=O)(=O)c4ccc(NCC5CCOCC5)c([N+](=O)[O-])c4)c(Oc4cnc5[nH]ccc5c4)c3)CC2)=C(c2ccc(Cl)cc2)C1", "note": "+ CC1OCC2(CCN(c3cnc(Sc4ccnc(N)c4Cl)c(N)n3)CC2)C1N", "values": [
      {"measurement": "IC50", "setting": "second compound 0.1 µM", "result": 1800, "unit": "nM"},
      {"measurement": "IC50", "setting": "second compound 0.316 µM", "result": 1730, "unit": "nM"},
      {"measurement": "IC50", "setting": "second compound 1 µM", "result": 1780, "unit": "nM"},
      {"measurement": "IC50", "setting": "second compound 3.16 µM", "result": 1580, "unit": "nM"},
      {"measurement": "IC50", "setting": "second compound 10 µM", "result": 1250, "unit": "nM"},
      {"measurement": "viability, T/C", "setting": "[1]", "result": 105, "unit": "%"},
      {"measurement": "viability, T/C", "setting": "[2]", "result": 97.1, "unit": "%"},
      {"measurement": "viability, T/C", "setting": "[3]", "result": 91.4, "unit": "%"},
      {"measurement": "viability, T/C", "setting": "[4]", "result": 89.1, "unit": "%"},
      {"measurement": "viability, T/C", "setting": "[5]", "result": 12.3, "unit": "%"},
      {"measurement": "viability, T/C", "setting": "[6]", "result": 3.59, "unit": "%"},
      {"measurement": "viability, T/C", "setting": "[7]", "result": 95.4, "unit": "%"},
      {"measurement": "viability, T/C", "setting": "[8]", "result": 94.4, "unit": "%"},
      {"measurement": "viability, T/C", "setting": "[9]", "result": 89.6, "unit": "%"},
      {"measurement": "viability, T/C", "setting": "[10]", "result": 84.5, "unit": "%"},
      {"measurement": "viability, T/C", "setting": "[11]", "result": 12.2, "unit": "%"},
      {"measurement": "viability, T/C", "setting": "[12]", "result": 3.15, "unit": "%"},
      {"measurement": "viability, T/C", "setting": "[13]", "result": 94.9, "unit": "%"},
      {"measurement": "viability, T/C", "setting": "[14]", "result": 97.9, "unit": "%"},
      {"measurement": "viability, T/C", "setting": "[15]", "result": 88.2, "unit": "%"},
      {"measurement": "viability, T/C", "setting": "[16]", "result": 87.1, "unit": "%"},
      {"measurement": "viability, T/C", "setting": "[17]", "result": 13.3, "unit": "%"},
      {"measurement": "viability, T/C", "setting": "[18]", "result": 3.05, "unit": "%"},
      {"measurement": "viability, T/C", "setting": "[19]", "result": 87.4, "unit": "%"},
      {"measurement": "viability, T/C", "setting": "[20]", "result": 85.5, "unit": "%"},
      {"measurement": "viability, T/C", "setting": "[21]", "result": 77.9, "unit": "%"},
      {"measurement": "viability, T/C", "setting": "[22]", "result": 71.8, "unit": "%"},
      {"measurement": "viability, T/C", "setting": "[23]", "result": 17.7, "unit": "%"},
      {"measurement": "viability, T/C", "setting": "[24]", "result": 2, "unit": "%"},
      {"measurement": "viability, T/C", "setting": "[25]", "result": 76, "unit": "%"},
      {"measurement": "viability, T/C", "setting": "[26]", "result": 82.1, "unit": "%"},
      {"measurement": "viability, T/C", "setting": "[27]", "result": 63.2, "unit": "%"},
      {"measurement": "viability, T/C", "setting": "[28]", "result": 60.8, "unit": "%"},
      {"measurement": "viability, T/C", "setting": "[29]", "result": 15.6, "unit": "%"},
      {"measurement": "viability, T/C", "setting": "[30]", "result": 0.69, "unit": "%"}
    ]}
  ]
}
